# From ChEMBL document CHEMBL1201862, “PubChem BioAssay data set” (2004)
# Active and inactive are the calls of the source.
# Experiments:
# [1] = HepG2 cell cytotoxicity, dose response, cytotoxicity control, plate reader, cherry-pick, antagonist series (AID 743416); format: functional, cell-based
# [2] = HEK293 cell cytotoxicity, dose response, cytotoxicity control, plate reader, cherry-picked samples (AID 743446); format: functional, cell-based
# [3] = MC4R antagonists, dose response, counter-screen for LGR2 antagonist project, cell-based, plate reader, cherry pick (AID 743444); format: functional;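 note: transfected HEK 293 cells stimulated with alpha-MSH peptide; potency of inhibitors of the alpha-MSH evoked signal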
# [4] = cytotoxicity toward DRD oncogenic fibroblasts, dose response, cell-based, non-viral oncogenic, luminescence (AID 1934); format: functional; settings: Homo sapiens
# BJ [5] = experiment: cytotoxicity toward BJ-TERT fibroblasts, dose response, cell-based, RAS-independent, luminescence (AID 1933); format: functional; settings: Homo sapiens
# [6] = molecular target: T1, Nuclear receptor subfamily 0 group B member 1 (Homo sapiens, UniProt P51843); format: functional, cell-based;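 note: HEK293T cells transfected with SF-1 and DAX-1 plus StAR promoter luciferase reporter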
# T1 sequence (P51843 whole entry): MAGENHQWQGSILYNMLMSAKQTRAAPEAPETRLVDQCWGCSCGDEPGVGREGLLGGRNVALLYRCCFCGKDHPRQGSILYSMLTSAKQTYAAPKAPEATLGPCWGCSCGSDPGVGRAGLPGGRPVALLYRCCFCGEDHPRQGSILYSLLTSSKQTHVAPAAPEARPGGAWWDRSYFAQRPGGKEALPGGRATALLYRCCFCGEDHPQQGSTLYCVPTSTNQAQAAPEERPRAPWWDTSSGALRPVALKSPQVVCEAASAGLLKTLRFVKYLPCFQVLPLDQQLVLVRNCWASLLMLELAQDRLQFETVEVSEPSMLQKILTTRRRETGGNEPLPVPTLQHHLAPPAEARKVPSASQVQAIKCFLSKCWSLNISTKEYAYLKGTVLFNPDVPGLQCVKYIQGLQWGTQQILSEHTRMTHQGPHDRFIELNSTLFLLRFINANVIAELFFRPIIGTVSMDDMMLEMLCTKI
# cells [7] = format: functional, cell-based
# [8] = inhibitors of SNCA 5'UTR-driven reporter translation, confirmation, H4 neuroglioma cells, luminescence (AID 1988); format: functional, cell-based
# BJ [9] = experiment: cells; format: functional, cell-based; settings: Homo sapiens
# [10] = A549 cell cytotoxicity, dose response, cytotoxicity control, plate reader, cherry-pick, antagonist series (AID 743412); format: functional, cell-based
# [11] = LGR2 antagonists, dose response, cell-based, HEK293, CRE-luciferase reporter, cherry pick, set 2 (AID 743343); format: functional;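 note: transfected cells were stimulated with diluted bursicon conditioned medium after compound addition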
# [12] = Luminescence Cell-Based Dose Response HTS to Identify Inhibitors of 5'UTR Stem-Loop Driven Prion Protein mRNA Translation in H4 Neuroglioblastoma Cells. [Related pubchem assays: 1827 (Project Summary), 1813 (Primary HTS)]; format: functional
# HEK293 = experiment: inhibitors of LMP1-driven NF-kB reporter, dose response, cell-based, HEK293, luciferase, cherry-pick (AID 588343); format: functional; settings: Homo sapiens
# BJ [13] = experiment: cytotoxicity toward BJ-TERT-LT-ST fibroblasts, dose response, cell-based, RAS-independent, luminescence (AID 1935); format: functional; settings: Homo sapiens;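 note: BJ fibroblasts immortalized with TERT plus LT and ST oncogenes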
# [14] = molecular target: T2, Trace amine-associated receptor 1 (Homo sapiens, UniProt Q96RJ0); experiment: Fluorescence-based cell-based high throughput dose response assay to identify agonists of the human trace amine associated receptor 1 (TAAR1).; format: functional
# T2 sequence (Q96RJ0 whole entry): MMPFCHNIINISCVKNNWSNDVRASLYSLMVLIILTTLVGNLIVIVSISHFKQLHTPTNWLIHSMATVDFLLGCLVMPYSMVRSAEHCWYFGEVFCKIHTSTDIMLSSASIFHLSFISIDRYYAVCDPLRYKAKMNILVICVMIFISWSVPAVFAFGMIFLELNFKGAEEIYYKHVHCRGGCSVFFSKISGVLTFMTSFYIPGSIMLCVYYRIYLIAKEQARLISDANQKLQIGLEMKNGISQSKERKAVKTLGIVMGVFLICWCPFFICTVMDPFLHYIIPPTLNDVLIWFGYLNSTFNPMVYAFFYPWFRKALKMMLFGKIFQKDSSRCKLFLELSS
# cells [15] = format: functional, cell-based; remark: listed apart in the source
# cells [16] = format: functional, cell-based; remark: listed apart in the source
# [17] = molecular target: T2, Trace amine-associated receptor 1; experiment: Counterscreen for agonists of the human trace amine associated receptor 1 (hTAAR1): Fluorescence-based cell-based high throughput dose response assay to identify hTAAR1 agonist that also desensitize TAAR1 receptor response.; format: functional
# [18] = molecular target: T3, Tyrosine-protein phosphatase non-receptor type 11 (Homo sapiens, UniProt Q06124); experiment: SHP2 phosphatase inhibition, dose response, selectivity assay for STEP inhibitor project, biochemical (AID 602367); format: functional; settings: read-out: IC50_Mean
# T3 sequence (Q06124 whole entry): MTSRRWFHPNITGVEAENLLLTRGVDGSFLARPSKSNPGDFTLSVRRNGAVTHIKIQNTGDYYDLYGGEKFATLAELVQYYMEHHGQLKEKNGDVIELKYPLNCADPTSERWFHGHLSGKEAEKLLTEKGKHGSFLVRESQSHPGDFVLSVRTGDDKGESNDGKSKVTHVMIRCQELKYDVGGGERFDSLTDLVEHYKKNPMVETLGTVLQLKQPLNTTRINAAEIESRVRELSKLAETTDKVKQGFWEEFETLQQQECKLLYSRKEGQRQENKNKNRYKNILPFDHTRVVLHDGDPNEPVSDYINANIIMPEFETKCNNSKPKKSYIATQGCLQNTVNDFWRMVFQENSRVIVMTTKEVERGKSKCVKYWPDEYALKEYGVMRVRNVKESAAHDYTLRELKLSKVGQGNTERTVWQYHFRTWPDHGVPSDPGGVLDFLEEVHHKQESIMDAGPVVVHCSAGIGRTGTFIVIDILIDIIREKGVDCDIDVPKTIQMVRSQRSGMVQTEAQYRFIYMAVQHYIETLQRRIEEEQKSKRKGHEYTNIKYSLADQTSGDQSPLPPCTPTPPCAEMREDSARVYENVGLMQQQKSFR
# [19] = molecular target: T4, Tyrosine-protein phosphatase non-receptor type 5 (Homo sapiens, UniProt P54829); experiment: STEP phosphatase inhibitors, confirmation, biochemical, fluorescence intensity, uHTS hits (AID 602372); format: functional; settings: read-out: IC50_Mean
# T4 sequence (P54829 whole entry): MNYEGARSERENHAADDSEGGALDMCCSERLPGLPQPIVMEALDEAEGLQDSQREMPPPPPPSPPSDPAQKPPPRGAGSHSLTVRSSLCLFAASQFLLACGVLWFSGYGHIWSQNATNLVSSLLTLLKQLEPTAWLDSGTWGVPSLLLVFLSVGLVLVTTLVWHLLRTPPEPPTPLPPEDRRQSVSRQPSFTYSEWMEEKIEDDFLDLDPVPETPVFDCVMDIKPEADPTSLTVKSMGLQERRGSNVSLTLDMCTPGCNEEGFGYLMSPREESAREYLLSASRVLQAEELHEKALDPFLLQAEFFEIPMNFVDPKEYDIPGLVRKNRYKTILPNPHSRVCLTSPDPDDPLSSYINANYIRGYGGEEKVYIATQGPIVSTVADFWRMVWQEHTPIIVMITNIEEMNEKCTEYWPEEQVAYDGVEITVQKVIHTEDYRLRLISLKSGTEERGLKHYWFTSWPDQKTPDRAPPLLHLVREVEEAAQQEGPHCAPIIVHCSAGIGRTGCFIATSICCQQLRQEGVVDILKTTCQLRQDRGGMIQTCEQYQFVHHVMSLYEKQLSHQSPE
# [20] = molecular target: T5, Low molecular weight phosphotyrosine protein phosphatase (Homo sapiens, UniProt P24666); format: functional; settings: read-out: IC50_Mean
# T5 sequence (P24666 whole entry): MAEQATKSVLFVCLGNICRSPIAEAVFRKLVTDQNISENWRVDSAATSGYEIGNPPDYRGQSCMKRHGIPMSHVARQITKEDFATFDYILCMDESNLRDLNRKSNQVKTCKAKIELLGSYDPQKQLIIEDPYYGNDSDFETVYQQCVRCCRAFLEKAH
# [21] = molecular target: Dual specificity protein phosphatase 3 (Homo sapiens, UniProt P51452); experiment: VHR phosphatase inhibition, dose response, selectivity assay for STEP inhibitor project, biochemical (AID 602374); format: functional; settings: read-out: IC50_Mean
# Dual specificity protein phosphatase 3, sequence (P51452 whole entry, the tested form may be a part): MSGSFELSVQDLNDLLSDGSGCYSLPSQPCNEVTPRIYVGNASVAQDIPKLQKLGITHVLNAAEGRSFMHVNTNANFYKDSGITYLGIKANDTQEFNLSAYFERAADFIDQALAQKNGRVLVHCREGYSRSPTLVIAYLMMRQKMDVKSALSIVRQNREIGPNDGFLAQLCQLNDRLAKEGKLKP
# [22] = molecular target: T6, Carboxy-terminal domain RNA polymerase II polypeptide A small phosphatase 1 (Homo sapiens, UniProt Q9GZU7); experiment: inhibitors of CTDSP1, concentration-response testing, biochemical assay, absorbance-based, actives from ultra-high-throughput screening (AID 540297); format: functional
# T6 sequence (Q9GZU7 whole entry): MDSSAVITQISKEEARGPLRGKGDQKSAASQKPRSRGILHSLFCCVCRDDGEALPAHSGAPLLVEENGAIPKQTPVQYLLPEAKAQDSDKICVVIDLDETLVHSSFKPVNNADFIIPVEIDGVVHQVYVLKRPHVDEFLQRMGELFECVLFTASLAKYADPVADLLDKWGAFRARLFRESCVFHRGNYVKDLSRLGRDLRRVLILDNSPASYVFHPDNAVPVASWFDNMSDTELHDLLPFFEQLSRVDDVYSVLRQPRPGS
# [23] = molecular target: T5, Low molecular weight phosphotyrosine protein phosphatase; format: functional; settings: read-out: IC50_Mean; remark: listed apart in the source
# [24] = molecular target: T7, Long-chain-fatty-acid--AMP ligase FadD28 (Mycobacterium tuberculosis, UniProt P9WQ59); experiment: Fluorescence polarization aasay to screen for inhibitors that compete for the binding of FadD28 to a bisubstrate Measured in Biochemical System Using Plate Reader - 2147-01_Inhibitor_Dose_CherryPick_Activity.; format: functional, Mycobacterium tuberculosis H37Rv
# T7 sequence (P9WQ59 whole entry): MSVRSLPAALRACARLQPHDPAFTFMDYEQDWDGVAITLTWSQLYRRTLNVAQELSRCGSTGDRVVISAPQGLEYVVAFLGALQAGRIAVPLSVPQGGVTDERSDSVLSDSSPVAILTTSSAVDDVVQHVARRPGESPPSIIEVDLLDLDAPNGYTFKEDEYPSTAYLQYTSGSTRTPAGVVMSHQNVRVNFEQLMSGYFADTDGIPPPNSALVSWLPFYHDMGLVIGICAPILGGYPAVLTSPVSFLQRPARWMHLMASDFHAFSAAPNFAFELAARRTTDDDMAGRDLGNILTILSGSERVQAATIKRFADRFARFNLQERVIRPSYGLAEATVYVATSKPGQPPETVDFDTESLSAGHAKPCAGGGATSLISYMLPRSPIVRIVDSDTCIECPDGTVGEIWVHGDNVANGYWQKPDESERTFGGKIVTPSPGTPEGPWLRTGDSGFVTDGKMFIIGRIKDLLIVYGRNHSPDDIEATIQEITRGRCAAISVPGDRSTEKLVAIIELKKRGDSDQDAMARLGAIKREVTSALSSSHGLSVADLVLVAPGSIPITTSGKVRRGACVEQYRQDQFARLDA
# [25] = molecular target: 5-hydroxytryptamine receptor 2A (Mus musculus, UniProt P35363); format: functional, cell-based;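 note: CHO-K1 cells with tagged receptor and beta-arrestin; agonist potency measured as compound-induced activation of the receptor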
# 5-hydroxytryptamine receptor 2A, sequence (P35363 whole entry): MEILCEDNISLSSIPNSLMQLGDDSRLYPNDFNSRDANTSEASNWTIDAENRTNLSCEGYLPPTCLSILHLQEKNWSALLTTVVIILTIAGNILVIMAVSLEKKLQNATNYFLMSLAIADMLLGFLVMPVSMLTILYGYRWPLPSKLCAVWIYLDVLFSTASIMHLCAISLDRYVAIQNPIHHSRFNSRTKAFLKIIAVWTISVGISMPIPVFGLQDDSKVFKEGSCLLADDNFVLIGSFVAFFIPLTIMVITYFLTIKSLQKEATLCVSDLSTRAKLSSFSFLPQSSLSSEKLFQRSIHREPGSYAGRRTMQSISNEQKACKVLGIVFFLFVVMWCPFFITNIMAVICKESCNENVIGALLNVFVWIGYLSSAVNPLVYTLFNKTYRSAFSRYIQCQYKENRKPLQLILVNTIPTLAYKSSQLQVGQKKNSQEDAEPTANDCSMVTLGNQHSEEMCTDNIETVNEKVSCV
# Mu-type opioid receptor = Mu-type opioid receptor (Homo sapiens, UniProt P35372); format: functional, cell-based;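 note: U2OS cells with beta-arrestin recruitment to OPRM1 by beta-gal complementation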
# Mu-type opioid receptor, sequence (P35372 whole entry, the tested form may be a part): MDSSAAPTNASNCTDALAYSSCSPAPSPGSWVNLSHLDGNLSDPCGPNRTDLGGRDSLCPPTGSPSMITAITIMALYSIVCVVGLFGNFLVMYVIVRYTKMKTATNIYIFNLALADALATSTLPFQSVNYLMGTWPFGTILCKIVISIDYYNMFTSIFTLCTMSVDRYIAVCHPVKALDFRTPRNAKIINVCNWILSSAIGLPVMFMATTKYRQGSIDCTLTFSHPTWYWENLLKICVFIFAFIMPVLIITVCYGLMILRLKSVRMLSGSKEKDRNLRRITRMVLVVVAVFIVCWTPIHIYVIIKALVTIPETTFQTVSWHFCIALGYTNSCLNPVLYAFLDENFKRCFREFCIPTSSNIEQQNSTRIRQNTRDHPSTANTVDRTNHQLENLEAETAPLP
# [26] = molecular target: Disintegrin and metalloproteinase domain-containing protein 17 (Homo sapiens, UniProt P78536); experiment: ADAM17 protease inhibitors, dose response, counter-screen for ADAM10 exosite inhibitor project, biochemical, quenched FRET substrate (AID 743253)
# Disintegrin and metalloproteinase domain-containing protein 17, sequence (P78536 whole entry, the tested form may be a part): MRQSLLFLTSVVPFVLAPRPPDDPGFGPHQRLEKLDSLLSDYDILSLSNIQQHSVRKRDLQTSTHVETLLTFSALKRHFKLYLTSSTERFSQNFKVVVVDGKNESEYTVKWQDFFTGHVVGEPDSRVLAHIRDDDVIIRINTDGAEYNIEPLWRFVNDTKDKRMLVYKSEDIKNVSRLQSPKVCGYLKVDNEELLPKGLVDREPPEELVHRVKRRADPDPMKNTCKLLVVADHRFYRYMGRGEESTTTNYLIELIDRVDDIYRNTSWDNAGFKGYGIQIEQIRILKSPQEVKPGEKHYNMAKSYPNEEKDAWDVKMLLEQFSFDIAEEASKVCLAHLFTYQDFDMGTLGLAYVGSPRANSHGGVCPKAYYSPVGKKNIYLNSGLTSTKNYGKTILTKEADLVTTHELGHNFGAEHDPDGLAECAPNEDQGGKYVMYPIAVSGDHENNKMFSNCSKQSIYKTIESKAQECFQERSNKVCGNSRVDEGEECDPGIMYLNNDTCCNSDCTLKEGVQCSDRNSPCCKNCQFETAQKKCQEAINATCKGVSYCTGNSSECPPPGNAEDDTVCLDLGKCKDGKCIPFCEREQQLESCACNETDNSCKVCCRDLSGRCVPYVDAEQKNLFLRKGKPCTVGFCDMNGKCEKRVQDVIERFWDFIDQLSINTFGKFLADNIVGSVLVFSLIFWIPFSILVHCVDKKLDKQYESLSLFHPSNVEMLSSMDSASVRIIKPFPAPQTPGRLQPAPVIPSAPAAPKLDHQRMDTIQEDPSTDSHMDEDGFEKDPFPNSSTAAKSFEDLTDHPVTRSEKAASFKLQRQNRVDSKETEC
# [27] = ADAM10 inhibitors, peptide cleavage, dose response, biochemical, QFRET (AID 743254);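 note: ADAM10 enzyme with the DM2 quenched FRET peptide as substrate; EDANS fluorescence gain as the protease cuts the substrate; inhibitor potency against ADAM10 proteolytic activity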
# [28] = Luminescence Cell-Based Dose Retest to Confirm Inhibitors of Cancer Stem Cells. [Related pubchem assays (depositor defined):AID2717, AID2721]; format: functional; settings: Homo sapiens
smiles,measurement,setting,value
COc1ccc(-c2ccc(NC(=O)c3ccco3)cc2)nn1,AC50,[1],15.2 µM (active)
same,AC50,[2],21.9 µM (active)
same,AC50,[3],3.59 µM (active)
same,EC50,[4],7.33 µM (active)
same,EC50,BJ [5],5.74 µM (active)
same,IC50,[6],> 67.6 µM (inactive)
same,IC50,cells [7],> 67.6 µM (inactive)
same,EC50,[8],5.37 µM (active)
same,EC50,BJ [9],10.1 µM (active)
same,AC50,[10],11.1 µM (active)
same,AC50,[11],3.8 µM (active)
same,EC50,[12],4.34 µM (active)
same,AC50,HEK293,1.51 µM (active)
same,EC50,BJ [13],21.8 µM (active)
COc1ccc(CNCCc2ccccc2F)c(OC)c1C,EC50,[14],0.498 µM (active)
same,IC50,cells [15],> 29.9 µM (inactive)
same,EC50,cells [16],> 29.9 µM (inactive)
same,IC50,[17],3.46 µM (active)
O=C(COc1ccc(/C=N/NC(=O)c2ccccc2O)cc1)Nc1ccccc1,IC50,[18],4.22 µM (active)
same,IC50,[19],11.7 µM (active)
same,IC50,[20],16.4 µM (active)
same,IC50,[21],3.88 µM (active)
same,IC50,[22],5.32 µM (active)
same,IC50,[23],39.9 µM (inactive)
COC(=O)c1ccc(COc2ccc(/C=N/Nc3cccc(C(=O)O)c3)cc2)cc1,AC50,[24],48.9 µM (active)
O=C(c1ccco1)N1CCN(Cc2ccc(F)cc2)CC1,EC50,[25],7.5 µM (active)
same,EC50,Mu-type opioid receptor,92.5 µM (inactive)
O=C(NCCc1ccccc1)c1nc(C(F)(F)F)[nH]c1-c1ccccc1,EC50,[14],4.78 µM (active)
same,IC50,cells [15],> 29.9 µM (inactive)
same,EC50,cells [16],> 29.9 µM (inactive)
same,IC50,[17],9.43 µM (active)
Cc1ccc(S(=O)(=O)Nc2ccc(-c3nnc(SCc4ccccc4Cl)o3)cc2)cc1,IC50,[26],> 69.5 µM (inactive)
same,IC50,[27],> 69.5 µM (inactive)
same,AC50,[28],3.88 µM (active)
COC(=O)Nc1nc2ccc(C(=O)c3cccs3)cc2[nH]1 [NOCODAZOLE],IC50,[6],> 0.833 µM (active)
CCCCC(=O)Nc1ccc(C(=O)NNC(=O)c2ccc(C)c(Br)c2)cc1,IC50,[18],3.17 µM (active)
same,IC50,[19],28 µM (inactive)
same,IC50,[20],16.6 µM (active)
same,IC50,[21],4.58 µM (active)
same,IC50,[22],10.2 µM (active)
same,IC50,[23],17.2 µM (active)
CCc1ccc(CN2CCN(C(=O)c3ccco3)CC2)cc1,EC50,[25],0.219 µM (active)
same,EC50,Mu-type opioid receptor,92.5 µM (inactive)
NS(=O)(=O)c1ccc(NCc2cc(Cl)ccc2OCc2ccccc2F)cc1,IC50,[26],> 69.5 µM (inactive)
same,IC50,[27],10.9 µM (inactive)
CCCCCCCCN1C(=O)[C@@H](CC(=O)NCCc2ccccc2OC)C[C@@]2(C(=O)OC)C1=C[C@H](C(C)(C)C)O[C@@H]2C,EC50,[14],5.23 µM (active)
same,IC50,cells [15],> 29.9 µM (inactive)
same,EC50,cells [16],> 29.9 µM (inactive)
same,IC50,[17],6.93 µM (active)
